Data on eight compounds can be found in patent US11578055B2, “Triazacyclododecansulfonamide (“TCD”)-based protein secretion inhibitors” (KEZAR LIFE SCIENCES, priority 2018, dated 2023).

A value given as a limit tells only on which side of the number the result lay.

In data set [1] the test system is PD1 signal sequence plus 10 amino acids fused to Gaussia Luciferase (PD1-ss+10aa/Gaussia Luciferase). Description: Dox Induced PD1-ss-Gluc Assay. Format: cell-based. Particulars: 24 hr, Dox inducible, 293FRT/TO cells; read-out: 24 hr Dox Inducible PD1ssGluc 293FRT/TO: Mean IC50. The gist of the method:
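Stable Flp-In 293 T-REx line expressing the fusion under tetracycline-inducible control, plated the day before assay. Compound dilutions added with doxycycline and incubated at 37 °C, 5% CO2; unspecified stereocentres mean data refer to stereoisomer mixtures.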

Data set [2] concerns multiple myeloma cell line NCl-H929. Put plainly: H929 Cell Viability Assay. It is filed as cell-based, human. Particulars: Homo sapiens, NCI-H929, 48 h, H929, Celltiter-Glo. The procedure, abridged:
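NCI-H929 myeloma cells in RPMI 1640 with 10% FBS were treated with compound dilutions for 48 h at 37 °C, and viability was then read by CellTiter-Glo luminescence. Compounds drawn without stereochemistry were tested as stereoisomer mixtures.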
Background: ATP-based viability assays read luminescence as a measure of living cells.

Data set [3] can be described thus: In Vitro Microsome Stability Assay (mouse). Format: in vitro ADME. Particulars: mouse liver microsomes, 30 min w/ NADPH. The gist of the method:
(§1)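 Test article, added from a 0.25 mM DMSO stock, was incubated with liver microsomes (20 mg/mL stock) in 0.1 M potassium phosphate at 37° C, with the reaction started by NADPH. Samples were quenched with acetonitrile containing internal standard at 0 and 30 min and analysed by LC-MS/MS. Values are % remaining at 30 min versus 0 min, using IS-normalised AUC ratios.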

Data set [4] in a line: In Vitro Microsome Stability Assay (rat). Format: in vitro ADME. Particulars: rat liver microsomes, 30 min w/ NADPH. The procedure, abridged: as §1
(Liver microsomes are vesicles of endoplasmic reticulum, rich in cytochrome P450 enzymes.)

Data set [5] is described as follows: In Vitro Microsome Stability Assay (human). Format: in vitro ADME. Particulars: human liver microsomes, 30 min w/ NADPH. The gist of the method: as §1
The nature of data set [6]: In Vitro Microsome Stability Assay (monkey). It is filed as in vitro ADME. Particulars: monkey liver microsomes, 30 min w/ NADPH. The gist of the method:
as §1

In data set [7] the test system is full length TNFα (amino acids 1-233) fused to Gaussia Luciferase. Put plainly: Dox Induced TNFα-FL-Gluc Assay. It is filed as cell-based. Particulars: 24 hr, Dox inducible, 293FRT/TO cells; read-out: 24 hr Dox Inducible TNFaFLGluc 293FRT/TO: Mean IC50. The gist of the method: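 Stable Flp-In 293 T-REx line expressing doxycycline-inducible full-length TNFα fused to Gaussia luciferase; cells plated the day before, then treated with compound dilutions in doxycycline-containing medium at 37° C, 5% CO2. Unspecified stereocentres mean stereoisomer mixtures were tested.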

In data set [8] the test system is multiple myeloma cell line U266B1. Put plainly: U266 Cell Viability Assay. Format: cell-based, human. Particulars: Homo sapiens, U-266; 48 hr, U266, Celltiter-Glo. The gist of the method:
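U266B1 myeloma cells in RPMI 1640 with 10% FBS were treated with compound dilutions for 48 h at 37° C, 5% CO2. Viability was read as CellTiter-Glo luminescence. Data for structures drawn without stereochemistry refer to stereoisomer mixtures.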

For data set [9], the system named is full length IL-2 (amino acids 1-153) fused to Gaussia Luciferase. Description: Dox Induced IL2-FL-Gluc Assay. Particulars: 24 hr, Dox inducible, 293FRT/TO cells; read-out: 24 hr Dox Inducible IL2FLGluc 293FRT/TO: Mean IC50. Format: cell-based. The procedure, abridged: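 Flp-In 293 T-REx stable line expressing full-length IL-2 (aa 1-153) with C-terminal Gaussia luciferase fusion under doxycycline-inducible control. Cells plated the day before; compound dilutions added in DMSO/media containing doxycycline, incubated at 37° C, 5% CO2.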

Data set [10] relates to HER3 signal sequence plus 4 amino acids fused to Gaussia Luciferase (HER3-ss+4aa/Gaussia Luciferase). Put plainly: Dox Induced HER3-ss-Gluc Assay. It is filed as cell-based. Particulars: 24 hr, doxycycline induced, Flp-In 293 T-REx cells; read-out: 24 hr Dox Inducible Her3(ss + 4) Gluc 293FRT/TO: Mean 1050. The source says:
FIp-In 293 T-REx™ cells were transfected with pcDNA™5/FRT/TO plasmid inserted with cDNA encoding Gaussia Luciferase fused to the 3′ end of cDNA encoding HER3 signal sequence plus 4 amino acids (N-[…]-C) (SEQ ID NO: 2). Transfected cells were selected for resistance to the selectable markers Hygromycin and Blasticidin to create a stable cell line that contained the HER3-ss+4aa/Gaussia Luciferase cDNA insert whose expression was regulated under the T-REx™ system. The day before assay, cells were trypsinized and plated in 384-well tissue culture plates. The next day, compound dilutions in DMSO/media containing doxycycline were added to the wells and incubated at 37° C., 5% CO2.
For chemical structures that include one or more stereoisomers, but are illustrated without indicating stereochemistry, the assay data refers to a mixture of stereoisomers.

For the compound `CC[C@H]1CN(S(=O)(=O)c2ccc(N(C)C)cc2)CCCN(CC2CCCCC2)CCCN(S(=O)(=O)N2CCc3cc(Cl)ccc3C2)C1` [A182], the IC50 in data set [1] was 0.0788 µM; in data set [7], 1.96 µM; in [9], 0.256 µM; in data set [10], 0.203 µM. In addition, the EC50 in data set [2] and in [8] was greater than 25 µM in each case. For the same compound, in data set [3], the “Liver Microsome Stability-% Left after 30 min w/ NADPH (%) Mouse” value (shortened to “Liver Microsome Stability-% Left … (%) Mouse”) is reported as 61.7%. The “Liver Microsome Stability-% Left after 30 min w/ NADPH (%) Rat” value (“Liver Microsome Stability-% Left … (%) Rat” for short) in data set [4] was found to be 41.9%. The “Liver Microsome Stability-% Left after 30 min w/ NADPH (%) Human” value (from here on “Liver Microsome Stability-% Left … (%) Human”) in data set [5] is given as 53.7%. Also, the “Liver Microsome Stability-% Left after 30 min w/ NADPH (%) Monkey” value (“Liver Microsome Stability-% Left … (%) Monkey” below) in data set [6] was determined as 41.5%.

Take `C[C@H]1CN(S(=O)(=O)c2ccc(N(C)C)cc2)CCCN([C@@H](C)c2ccccc2)CCCN(S(=O)(=O)N2CCc3ccccc3C2)C1` [A205, N,N-dimethyl-4-{[(3S)-3-methyl-9-[(1 S)-1-phenylethyl]-5-(1,2,3,4-tetrahydroisoquinoline-2-sulfonyl)-1,5,9-triazacyclododecan-1-yl]sulfonyl}aniline]: the IC50 in data set [1] was found to be 0.129 µM; in [7], 1.81 µM; in [9], 0.305 µM; in [10], 0.23 µM. In addition, the EC50 (as a rule, the concentration at which the effect is half-maximal) was 2.36 µM in [2] and greater than 25 µM in data set [8]. Also, the “Liver Microsome Stability-% Left … (%) Mouse” value in data set [3] turned out to be 38.9%. In data set [4], the “Liver Microsome Stability-% Left … (%) Rat” value is reported as 38.7%. Also, the “Liver Microsome Stability-% Left … (%) Human” value in [5] was found to be 37.2%. Besides, in [6], the “Liver Microsome Stability-% Left … (%) Monkey” value is given as 31.7%.

For the compound `C[C@H]1CN(S(=O)(=O)c2ccc(N(C)C)cc2)CCCN(CC2CCC(F)(F)CC2)CCCN(S(=O)(=O)N2CCc3cc(Cl)ccc3C2)C1` [A185, 4-{[(3S)-5-[(6-chloro-1,2,3,4-tetrahydroisoquinolin-2-yl)sulfonyl]-9-[(4,4-difluorocyclohexyl)methyl]-3-methyl-1,5,9-triazacyclododecan-1-yl]sulfonyl}-N,N-dimethylaniline], the IC50 in data set [1] was 0.0432 µM; in data set [7], 0.573 µM; in [9], 0.0854 µM; in data set [10] it was 0.0855 µM. Also, the EC50 is 1.47 µM in [2] and greater than 25 µM in [8]. For the same compound, the “Liver Microsome Stability-% Left … (%) Mouse” value in data set [3] was 30.1%. In addition, the “Liver Microsome Stability-% Left … (%) Rat” value in data set [4] worked out at 37.8%. For the same compound, the “Liver Microsome Stability-% Left … (%) Human” value in data set [5] is 21.8%. Besides, the “Liver Microsome Stability-% Left … (%) Monkey” value in data set [6] is on record as 10.0%.

On to `C[C@H]1CN(S(=O)(=O)c2ccc(N(C)C)cc2)CCCN(CCC2CCCC2)CCCN(S(=O)(=O)N2CCc3cc(Cl)ccc3C2)C1` [A120, 4-{[(3S)-5-[(6-chloro-1,2,3,4-tetrahydroisoquinolin-2-yl)sulfonyl]-9-(2-cyclopentylethyl)-3-methyl-1,5,9-triazacyclododecan-1-yl]sulfonyl}-N,N-dimethylaniline], for which the IC50 is 0.0156 µM in data set [1], 0.239 µM in data set [7], 0.0273 µM in [9] and 0.0314 µM in [10]. In addition, the half-maximal effective concentration (EC50) in data set [2] is 0.672 µM; in [8], greater than 25 µM. In [3], the “Liver Microsome Stability-% Left … (%) Mouse” value is reported as 19.2%. Besides, the “Liver Microsome Stability-% Left … (%) Rat” value in data set [4] amounted to 28.5%. Besides, the “Liver Microsome Stability-% Left … (%) Human” value in [5] turned out to be 4.78%. Also, the “Liver Microsome Stability-% Left … (%) Monkey” value in data set [6] came out at 16.3%.

Regarding `C[C@H]1CN(S(=O)(=O)c2ccc(N(C)C)cc2)CCCN(CC2CCC(F)CC2)CCCN(S(=O)(=O)N2CCc3cc(Cl)ccc3C2)C1` (stereo partly drawn) [A204, 4-{[(3S)-5-[(6-chloro-1,2,3,4-tetrahydroisoquinolin-2-yl)sulfonyl]-9-[(4-fluorocyclohexyl)methyl]-3-methyl-1,5,9-triazacyclododecan-1-yl]sulfonyl}-N,N-dimethylaniline], the IC50 in [1] is 0.0584 µM; in [7] it was 0.982 µM; in data set [9], 0.158 µM; in data set [10] it was 0.134 µM. Further, the EC50 is 1.49 µM in data set [2] and greater than 25 µM in data set [8]. The “Liver Microsome Stability-% Left … (%) Mouse” value in [3] was 62.6%. Further, the “Liver Microsome Stability-% Left … (%) Rat” value in data set [4] worked out at 58.3%. Further, the “Liver Microsome Stability-% Left … (%) Human” value in data set [5] was found to be 48.4%. For the same compound, in [6], the “Liver Microsome Stability-% Left … (%) Monkey” value is on record as 49.7%.

With `CC(=O)N(C)c1ccc(CNS(=O)(=O)N2CCCN(CC3CCCCC3)CCCN(S(=O)(=O)c3ccc(N(C)C)cc3)C[C@H](C)C2)cc1` [A192, N-{4-[({[(3S)-9-(cyclohexylmethyl)-5-[4-(dimethylamino)benzenesulfonyl]-3-methyl-1,5,9-triazacyclododecan-1-yl]sulfonyl}amino)methyl]phenyl}-N-methylacetamide], the IC50 was 1.15 µM in [1], greater than 25 µM in data set [7], 2.33 µM in data set [9] and 1.71 µM in data set [10]. Besides, the concentration giving a half-maximal response (EC50) in data set [2] was 9.36 µM; in data set [8], greater than 25 µM. In [3], the “Liver Microsome Stability-% Left … (%) Mouse” value was 0.18%. Besides, the “Liver Microsome Stability-% Left … (%) Rat” value in [4] turned out to be 0.08%. In addition, the “Liver Microsome Stability-% Left … (%) Human” value in data set [5] worked out at 0.02%. Besides, the “Liver Microsome Stability-% Left … (%) Monkey” value in data set [6] was 0.10%.

For the compound `COc1cc(F)ccc1N1CCN(S(=O)(=O)N2CCCN([C@@H](C)C3CCCCC3)CCCN(S(=O)(=O)c3ccc(N(C)C)cc3)C[C@H](C)C2)C[C@H]1C` [A207, 4-{[(3S)-9-[(1 S)-1-cyclohexylethyl]-5-{[(3 R)-4-(4-fluoro-2-methoxyphenyl)-3-methylpiperazin-1-yl]sulfonyl}-3-methyl-1,5,9-triazacyclododecan-1-yl]sulfonyl}-N,N-dimethylaniline], the IC50 in [1] is 0.00793 µM; in [7], 0.221 µM; in data set [9], 0.0106 µM; in [10], 0.018 µM. Also, the concentration giving a half-maximal response (EC50) in data set [2] was 0.106 µM; in data set [8] it was greater than 25 µM. In data set [3], the “Liver Microsome Stability-% Left … (%) Mouse” value is listed as 84.3%. The “Liver Microsome Stability-% Left … (%) Rat” value in data set [4] was 98.8%. Also, in data set [5], the “Liver Microsome Stability-% Left … (%) Human” value was determined as 62.7%. Also, the “Liver Microsome Stability-% Left … (%) Monkey” value in data set [6] is reported as 63.0%.

`C[C@H]1CN(S(=O)(=O)c2ccc(N(C)C)cc2)CCCN([C@@H](C)C2CCCCC2)CCCN(S(=O)(=O)N2CCc3cc(Cl)ccc3C2)C1` [A190, 4-{[(3S)-5-[(6-chloro-1,2,3,4-tetrahydroisoquinolin-2-yl)sulfonyl]-9-[(1 S)-1-cyclohexylethyl]-3-methyl-1,5,9-triazacyclododecan-1-yl]sulfonyl}-N,N-dimethylaniline]: the IC50 was 0.0162 µM in data set [1], 0.295 µM in data set [7], 0.0457 µM in data set [9] and 0.0356 µM in [10]. The values for the EC50 in [2] and in data set [8] were 0.867 µM and greater than 25 µM, respectively. For the same compound, the “Liver Microsome Stability-% Left … (%) Mouse” value in data set [3] is 69.3%. Also, the “Liver Microsome Stability-% Left … (%) Rat” value in data set [4] was 85.3%. Moreover, in data set [5], the “Liver Microsome Stability-% Left … (%) Human” value amounted to 74.1%. The “Liver Microsome Stability-% Left … (%) Monkey” value in data set [6] is given as 71.6%.
